The text below walks through data of patent US11542266B1, “Substituted piperidines as BTK inhibitors” (HAISCO PHARMACEUTICALS PTE. LTD., priority 2019, dated 2023).

Where a name gives a salt, the structure may show the parent alone.

A short description of data set [1]: Pharmacokinetic experiment in rats (i.g. vehicle 0.5% MC). The format is in vivo. To be noted: Sprague-Dawley (SD), rat, po, male SD rats, plasma; for AUC(0-t): i.g. 20 mg/kg, vehicle 0.5% MC, read-out: AUC0-t. How it is done: Objective: In this experiment, a single dose of each test compound was administered to SD rats intravenously and intragastrically, the concentrations of the test compound in plasma of rats were measured, and the pharmacokinetic characteristics and bioavailability of the test compound in rats were evaluated.
Experimental animals: Male SD rats, 200-250 g, 6-8 weeks old, 6 rats/test compound. The experimental animals were purchased from CHENGDU DOSSY EXPERIMENTAL ANIMALS CO., LTD.
Experimental method: On the day of the experiment, 6 SD rats were randomly grouped according to their body weight. The animals were fasted with water available for 12 to 14 hours one day before the administration of a test compound, and were fed 4 hours after the administration.
Sampling: Before and after the administration, 0.1 ml of blood was taken from the orbit of the rats under isoflurane anesthesia, and placed in an EDTAK2 centrifuge tube. Centrifugation was carried out at 5000 rpm at 4° C. for 10 min and the plasma was collected.
Time points for plasma collection in G1 group: 0, 5 m, 15 m, 30 m, 1 h, 2 h, 4 h, 6 h, 8 h, and 24 h.
Time points for plasma collection in G2 group: 0, 15 m, 30 m, 1 h, 2 h, 4 h, 6 h, 8 h, and 24 h.
Before analysis and detection, all samples were stored at −80° C. The samples were analyzed quantitatively by LC-MS/MS.

The next data set relates to SU-DHL-4 cells. Kind of data set: Inhibition of cell proliferation, SU-DHL-4 cells (Cell Viability Assay, 72 h). The format is cell-based, human. To be noted: for SU-DHL-4 Max inhi. %: inhibition rate at the highest concentration of the compound. On the procedure:
(§1) SU-DHL-4, Mino, and SU-DHL-6 cells, in the culture medium of RPMI1640+10% FBS, were cultured in an incubator at 37° C. under 5% CO2. Cells were plated in a 96-well plate. Specifically, SU-DHL-4 cells were at 20000/well, Mino and SU-DHL-6 cells were at 5000/well, with 90 μL/well. 10 μL of the compounds at different concentrations were added to each well. There were 3 replicate wells for each concentration, and the last column, added with DMSO, was used as a vehicle control group. The cultures were continued for 72 hours at 37° C. under 5% CO2. After 72 hours, 100 μL of detection reagent (Cell Viability Assay, Promega, G7573) was added to each well, and the cultures were uniformly mixed for 2 minutes, and incubated at room temperature for 10 minutes. The fluorescence signal value was measured with a microplate reader (PHERAstar FSX). The IC50 value of the compound on cell proliferation inhibition was calculated using Origin 9.2 software, and the inhibition rate at the highest concentration of the compound (Max inhi. %) was calculated according to formula (1). Max inhi. %=(1-T72 administration/T72 vehicle)×100 Formula (1).

The next data set relates to Mino cells. Description: Inhibition of cell proliferation, Mino cells (Cell Viability Assay, 72 h). The format is cell-based, human. To be noted: for Mino Max inhi. %: inhibition rate at the highest concentration of the compound; for IC50: Homo sapiens. On the procedure:
as §1

In the case of `Nc1ncnc2c1c(-c1ccc(Oc3ccccc3)cc1)nn2C1CCN(Cc2cnc(N3CC4(CCN(c5ccc6c(c5)C(=O)N(C5CCC(=O)NC5=O)C6=O)CC4)C3)nc2)CC1` (stereo not shown) [Compound 7, 5-[2-[5-[[4-[4-amino-3-(4-phenoxyphenyl)pyrazolo[3,4-d]pyrimidin-1-yl]-1-piperidyl]methyl]pyrimidin-2-yl]-2,7-diazaspiro[3.5]nonan-7-yl]-2-(2,6-dioxo-3-piperidyl)isoindoline-1,3-dione tritrifluoroacetate], the AUC(0-t) in data set [1] came out at 105 ± 54 ng·h/mL.

For `Nc1ncnc2c1c(-c1ccc(Oc3ccccc3)cc1)nn2C1CCN(C2CC3(CCN(c4ccc5c(c4)C(=O)N(C4CCC(=O)NC4=O)C5=O)CC3)C2)CC1` (stereo not shown) [Compound 1, 5-[2-[4-[4-amino-3-(4-phenoxyphenyl)pyrazolo[3,4-d]pyrimidin-1-yl]-1-piperidyl]-7-azaspiro[3.5]nonan-7-yl]-2-(2,6-dioxo-3-piperidyl)isoindoline-1,3-dione], in data set [1], the AUC(0-t) turned out to be 479 ± 197 ng·h/mL.

On to `Nc1ncnc2c1c(-c1ccc(Oc3ccccc3)cc1)nn2C1CCN(C2CCC(N3CC(Oc4ccc5c(c4)C(=O)N(C4CCC(=O)NC4=O)C5=O)C3)CC2)CC1` (stereo not shown) [Compound 36-a, 5-[1-[4-[4-[4-amino-3-(4-phenoxyphenyl)pyrazolo[3,4-d]pyrimidin-1-yl]-1-piperidyl]cyclohexyl]azetidin-3-yl]oxy-2-(2,6-dioxo-3-piperidyl)isoindoline-1,3-dione], for which, in the data set on SU-DHL-4 cells, the “SU-DHL-4 Max inhi. %” value is 99.6%.

Consider `Nc1ncnc2c1c(-c1ccc(Oc3ccccc3)cc1)nn2C1CCN(C2CCC(N3CC(Oc4ccc5c(c4)C(=O)N(C4CCC(=O)NC4=O)C5=O)C3)CC2)CC1` (stereo not shown) [Compound 36-b, 5-[1-[4-[4-[4-amino-3-(4-phenoxyphenyl)pyrazolo[3,4-d]pyrimidin-1-yl]-1-piperidyl]cyclohexyl]azetidin-3-yl]oxy-2-(2,6-dioxo-3-piperidyl)isoindoline-1,3-dione trifluoroacetate], for which the “SU-DHL-4 Max inhi. %” value with SU-DHL-4 cells (trifluoroacetate) is on record as 99.8%.

`Nc1ncnc2c1c(-c1ccc(Oc3ccccc3)cc1)nn2C1CCN(c2cnc(N3CC4CN(c5ccc6c(c5)C(=O)N(C5CCC(=O)NC5=O)C6=O)CC4C3)nc2)CC1` (stereo not shown) [Compound 3, 5-[5-[5-[4-[4-amino-3-(4-phenoxyphenyl)pyrazolo[3,4-d]pyrimidin-1-yl]-1-piperidyl]pyrimidin-2-yl]-1,3,3a,4,6,6a-hexahydropyrrolo[3,4-c]pyrrol-2-yl]-2-(2,6-dioxo-3-piperidyl)isoindoline-1,3-dione tetratrifluoroacetate]: the AUC(0-t) in data set [1] stood at 211 ± 46 ng·h/mL.

For `Nc1ncnc2c1c(-c1ccc(Oc3ccccc3)cc1)nn2C1CCN(c2cnc(N3CC4(CCN(c5ccc6c(c5)C(=O)N(C5CCC(=O)NC5=O)C6=O)CC4)C3)nc2)CC1` (stereo not shown) [Compound 4, 5-[2-[5-[4-[4-amino-3-(4-phenoxyphenyl)pyrazolo[3,4-d]pyrimidin-1-yl]-1-piperidyl]pyrimidin-2-yl]-2,7-diazaspiro[3.5]nonan-7-yl]-2-(2,6-dioxo-3-piperidyl)isoindoline-1,3-dione], in data set [1], the AUC(0-t) was found to be 36 ± 10 ng·h/mL.

Consider `Nc1ncnc2c1c(-c1ccc(Oc3ccccc3)cc1)nn2[C@@H]1CCCN(C2CCC(N3CC(Oc4ccc5c(c4)C(=O)N(C4CCC(=O)NC4=O)C5=O)C3)CC2)C1` (single isomer, unassigned) [Compound 34-b], for which the “SU-DHL-4 Max inhi. %” value in the data set with SU-DHL-4 cells is reported as 99.2%.

As a reminder, the bioavailability is dose-corrected exposure relative to a reference, in per cent. Lower therefore signals little systemic uptake. `Nc1ncnc2c1c(-c1ccc(Oc3ccccc3)cc1)nn2C1CCN(C2CN(C3CN(c4cc5c(cc4F)C(=O)N(C4CCC(=O)NC4=O)C5=O)C3)C2)CC1` (stereo not shown) [Compound 21, 5-(3-(4-(4-amino-3-(4-phenoxyphenyl)-1H-pyrazolo[3,4-d]pyrimidin-1-yl)piperidin-1-yl)-[1,3′-biazetidin]-1′-yl)-2-(2,6-dioxopiperidin-3-yl)-6-fluoroisoindoline-1,3-dione] registered a bioavailability in data set [1] (i.g. 20 mg/kg (0.5% MC) vs i.v. 5 mg/kg) of 12.4 ± 3.8%. The AUC(0-t) in data set [1] was determined as 3200 ± 973 ng·h/mL.

Turning to `Nc1ncnc2c1c(-c1ccc(Oc3ccccc3)cc1)nn2C1CCN(C2C[C@@H]3CN(C4C[C@@H]5CN(c6ccc7c(c6)C(=O)N(C6CCC(=O)NC6=O)C7=O)C[C@@H]5C4)C[C@@H]3C2)CC1` (stereo partly drawn) [Compound 53, 5-((3aR,3′aR,6aS,6′aS)-5-(4-(4-amino-3-(4-phenoxyphenyl)-1H-pyrazolo[3,4-d]pyrimidin-1-yl)piperidin-1-yl)dodecahydro-1H-[2,5′-bi(cyclopenta[c]pyrrol)]-2′(1′H)-yl)-2-(2,6-dioxopiperidin-3-yl)isoindoline-1,3-dione trifluoroacetate], in the data set on Mino cells, the “Mino Max inhi. %” value was 99.6%.

`Nc1ncnc2c1c(-c1ccc(Oc3ccccc3)cc1)nn2C1CCN(C2CC3(CCN(C4CC5(CCN(c6ccc7c(c6)C(=O)N(C6CCC(=O)NC6=O)C7=O)CC5)C4)CC3)C2)CC1` (stereo not shown) [Compound 51, 5-(2′-(4-(4-amino-3-(4-phenoxyphenyl)-1H-pyrazolo[3,4-d]pyrimidin-1-yl)piperidin-1-yl)-7,7′-diaza[2,7′-bispiro[3.5]nonan]-7-yl)-2-(2,6-dioxopiperidin-3-yl)isoindoline-1,3-dione]: in the data set with Mino cells, the “Mino Max inhi. %” value is 99.7%.

Take `Nc1ncnc2c1c(-c1ccc(Oc3ccccc3)cc1)nn2C1CCN(C2CCC3(CC2)CN(C2CCC4(CC2)CN(c2ccc5c(c2)C(=O)N(C2CCC(=O)NC2=O)C5=O)C4)C3)CC1` (stereo not shown) [Compound 55, 5-(7-(4-(4-amino-3-(4-phenoxyphenyl)-1H-pyrazolo[3,4-d]pyrimidin-1-yl)piperidin-1-yl)-2,2′-diaza[2,7′-bispiro[3.5]nonan]-2′-yl)-2-(2,6-dioxopiperidin-3-yl)isoindoline-1,3-dione]: the “Mino Max inhi. %” value in the data set on Mino cells is reported as 99.9%.

What is called IC50 is the concentration that inhibits the measured activity by half. Turning to `Nc1ncnc2c1c(-c1ccc(Oc3ccccc3)cc1)nn2C1CCN(C2CN(C3CN(c4cccc5c4C(=O)N(C4CCC(=O)NC4=O)C5=O)C3)C2)CC1` (stereo not shown) [Compound 27, 4-[3-[3-[4-[4-amino-3-(4-phenoxyphenyl)pyrazolo[3,4-d]pyrimidin-1-yl]-1-piperidyl]azetidin-1-yl]azetidin-1-yl]-2-(2,6-dioxo-3-piperidyl)isoindoline-1,3-dione], the IC50 in the data set with Mino cells came to 503 nM.

As to `Nc1ncnc2c1c(-c1ccc(Oc3ccccc3)cc1)nn2C1CCN(C2CN(C3CN(c4ccc5c(c4)CN(C4CCC(=O)NC4=O)C5=O)C3)C2)CC1` (stereo not shown) [Compound 26, 3-[5-[3-[3-[4-[4-amino-3-(4-phenoxyphenyl)pyrazolo[3,4-d]pyrimidin-1-yl]-1-piperidyl]azetidin-1-yl]azetidin-1-yl]-1-oxo-isoindolin-2-yl]piperidine-2,6-dione], the “Mino Max inhi. %” value in the data set on Mino cells is on record as 74.3%.

In the case of `Nc1ncnc2c1c(-c1ccc(Oc3ccccc3)cc1)nn2C1CCN(C2CN(C3CCN(C4CCN(C5CN(c6ccc7c(c6)C(=O)N(C6CCC(=O)NC6=O)C7=O)C5)CC4)CC3)C2)CC1` (stereo not shown) [Compound 13, 5-[3-[4-[4-[3-[4-[4-amino-3-(4-phenoxyphenyl)pyrazolo[3,4-d]pyrimidin-1-yl]-1-piperidyl]azetidin-1-yl]-1-piperidyl]-1-piperidyl]azetidin-1-yl]-2-(2,6-dioxo-3-piperidyl)isoindoline-1,3-dione], the IC50 in the data set on Mino cells was 677 nM; in the data set on SU-DHL-4 cells (Homo sapiens), 70 nM.

Regarding `NC(=O)c1c(-c2ccc(Oc3ccccc3)cc2)nn2c1NCC[C@H]2C1CCN(C2CCN(c3ccc4c(c3)C(=O)N(C3CCC(=O)NC3=O)C4=O)CC2)CC1` (stereo partly drawn) [Compound 48, (7S)-7-(1′-(2-(2,6-dioxopiperidin-3-yl)-1,3-dioxo-isoindolin-5-yl)-[1,4′-bipiperidin]-4-yl)-2-(4-phenoxyphenyl)-4,5,6,7-tetrahydropyrazolo[1,5-a]pyrimidine-3-carboxamide], the “Mino Max inhi. %” value in the data set on Mino cells was found to be 95.7%.

In the case of `Nc1ncnc2c1c(-c1ccc(Oc3ccccc3)cc1)nn2[C@@H]1CCCN(C2CCC(N3CC(Oc4ccc5c(c4)C(=O)N(C4CCC(=O)NC4=O)C5=O)C3)CC2)C1` (single isomer, unassigned) [Compound 34-a], in the data set with SU-DHL-4 cells, the “SU-DHL-4 Max inhi. %” value was 94.4%.

In turn, `Nc1ncnc2c1c(-c1ccc(Oc3ccccc3)cc1)nn2C1CCN(C2CCN(C3CN(c4ccc5c(c4)C(=O)N(C4CCC(=O)NC4=O)C5=O)C3)C2)CC1` (stereo not shown) [Compound 24, 5-[3-[3-[4-[4-amino-3-(4-phenoxyphenyl)pyrazolo[3,4-d]pyrimidin-1-yl]-1-piperidyl]pyrrolidin-1-yl]azetidin-1-yl]-2-(2,6-dioxo-3-piperidyl)isoindoline-1,3-dione] returned an IC50 with Mino cells of 629 nM.
